The term LD50 denotes the dose at which mortality reaches 50%. Low values mean a more toxic substance, high ones a less toxic substance.

Two molecules from patent US4486429A, “Amino derivatives of 4-phenyl 4-oxobuten-2-oic acid, pharmaceutical compositions containing them, and methods for preparing and therapeutically using them” (Roussel Uclaf, priority 1981, dated 1984) can be followed below.

The test system of one data set is stomach ulcers. Kind of data set: Determination of the anti-ulcer activity (stress ulcer, rats). Type of data set: in vivo. To be noted: female rats, stress and cold (8° C., two hours), dose 10 mg/kg by esophageal tube two hours before. As to the method:
(2) Determination of the anti-ulcer activity
The technique consists in inducing stomach ulcers by stress in rats (stress and cold). The technique used is described by E. C. SENAY and R. J. LEVINE, Proc. Soc. Exp. Biol. 124, 1221 (1967).
Female rats weighing about 150 g (5 animals per lot) which have fasted for 48 hours with water ad libitum and glucose solution for 8 hours were used. By an esophageal tube, the animals were administered the test compound, or a solution of 0.5% carboxymethyl cellulose solution for the control animals. Two hours later, the animals were bundled in a jacket of netting. Their paws were bound and the entire unit was placed in a refrigerator at 8° C. for two hours. The rats were released and killed with ether.
Their stomachs were removed, opened along the greater curvature and examined by binocular magnifier. The seriousness of ulceration was clasified from 0 to 3 for each stomach.
For each lot of rats the average intensity of the ulcerations was calculated. The degree of ulceration for control and test animals was determined and the variation expressed in percentage.

Another data set concerns gastric secretions. Kind of data set: Determination of the anti-gastric secretion activity (Shay technique, pylorus ligation, rats). Type of data set: in vivo. Particulars: pylorus ligated, dose 10 mg/kg, intraduodenal, 3 hours, total acidity of gastric juice. As to the method:
(1) Determination of the anti-gastric secretion activity
The technique used is described by H. SHAY et al. in Gastroenterology 5, 43, 1945.
Male rats were used having a weight of about 200 g each (10 animals per lot), and kept without food for 48 hours but enjoying ad libitum 8% glucose solution. After the rats were slightly anesthetized with ether the pylorus of each was ligated. At the end of the operation, the product to be tested was administered intraduodenally in different doses or, for the control animals 0.5% carboxymethyl cellulose solution was administered, whereupon the abdominal incision is sutured.
Three hours later, the animals were sacrificed and their stomachs removed after ligating the esophagus. The gastric juice was removed and centrifuged. The volume of gastric juice obtained was then measured and the total acidity of the gastric juice was determined by titrating a […] of gastric juice to a pH of 7 by means of 1/10 N aqueous sodium hydroxide solution.
The percentages of variation in total acidity of the gastric secretions between control and test animals were calculated.

The nature of data set [1]: Determination of the acute toxicity (LD50, oral, mice). To be noted: mouse, in vivo, oral administration. On the procedure:
(3) Determination of the acute toxicity
The LD50 was evaluated after oral administration of the product to mice.

For the molecule `CCOC(=O)Nc1ccc(C(=O)/C=C/C(=O)O)cc1` [Example 1, (E) 4-(4-carbethoxyaminophenyl)-4-oxobuten-2-oic acid], in the data set on stomach ulcers, the “Anti-ulcer activity (% variation referred to the controls): Ulceration” value is on record as -41%. For the same molecule, the “Anti-secretion activity (% variation referred to the controls): Acid Concentration” value in the data set on gastric secretions is recorded as -55%. For the same molecule, the LD50 in data set [1] was above 1000 mg/kg.
The like results for `CN(C)c1ccc(C(=O)/C=C/C(=O)O)cc1` [Example 4, (E) 4-(4-N,N-dimethylaminophenyl) 4-oxobuten-2-oic acid] were, in that order, -61%, -58% and 750 mg/kg.
